Assay results: ChEMBL document CHEMBL5352446, “Synthesis and biological evaluation of a novel c-Myc inhibitor against colorectal cancer via blocking c-Myc/Max heterodimerization and disturbing its DNA binding” (Eur J Med Chem, 2022)
Active and inactive are the calls of the source. The calls are words filed in the database; no cut-off is given here.

Legend:
[1] = system: HCT-116; experiment: Inhibition of colony formation in human HCT-116 cells measured after 14 days by crystal violet staining based assay; type: functional, cell-based; conditions: dose 0.25-2 µM, time 14.0 day
[2] = system: HT-29; experiment: Induction of apoptosis in human HT-29 cells assessed as upregulation of BAD expression incubated for 24 hrs by Western blot analysis; type: functional, cell-based; conditions: dose 2.5-10 µM
[3] = system: HT-29; experiment: Induction of cell cycle arrest in human HT-29 cells assessed as accumulation of cells at G1 phase at 5 uM incubated for 24 hrs by propidium iodide staining based flow cytometry analysis (reference value: 65.37 %); type: functional
[4] = system: HT-29; experiment: Antitumor activity against human HT-29 cells xenografted in ip dosed BALB/c mouse assessed as tumor growth inhibition administered daily for 3 weeks by caliper method; type: functional, organism-based; conditions: dose 40-80 mg/kg
[5] = system: HT-29; experiment: Antitumor activity against human HT-29 cells xenografted in BALB/c mouse assessed as tumor growth inhibition at 40 mg/kg, ip administered daily for 3 weeks by caliper method; type: functional; conditions: HT-29, 504 h, read-out: TGI
[6] = system: HT-29; experiment: Induction of apoptosis in human HT-29 cells assessed as late apoptotic cells at 2.5 uM incubated for 24 hrs by FITC Annexin-V and PI staining based flow cytometry analysis (reference value: 0.78%); type: functional
[7] = species: Homo sapiens; experiment: (§1) Inhibition of human Myc (353 to 439 residues)/Max(S) (151 residues) expressed in Escherichia coli BL21(DE3) binding to biotinylated double-stranded DNA oligonucleotide 5'-CACCCGGTCACTGGCCTACAC-3' (unknown origin) preincubated for 90 mins followed by oligonucleotide addition for 25 mins by EMSA; conditions: time 115.0 min
[8] = system: HT-29; experiment: Induction of apoptosis in human HT-29 cells assessed as early apoptotic cells at 5 uM incubated for 24 hrs by FITC Annexin-V and PI staining based flow cytometry analysis (reference value: 2.15%); type: functional
[9] = system: HT-29; experiment: Induction of apoptosis in human HT-29 cells assessed as upregulation of cleaved caspase 3 expression incubated for 24 hrs by Western blot analysis; type: functional, cell-based; conditions: dose 2.5-10 µM
[10] = Toxicity in BALB/c mouse xenografted with human HT-29 cells assessed as body weight loss at 40 to 80 mg/kg, ip measured after 21 days; type: organism-based; conditions: in vivo, 504 h, dose 40-80 mg/kg, time 21 day
[11] = system: HT-29; experiment: Induction of cell cycle arrest in human HT-29 cells assessed as accumulation of cells at G2 phase at 0.625 uM incubated for 24 hrs by propidium iodide staining based flow cytometry analysis (reference value: 16.33 %); type: functional
[12] = species: Homo sapiens; experiment: as §1, with “c-Myc” for “Myc”, “origin) at 20 uM” for “origin)”; conditions: time 115.0 min
[13] = system: HT-29; experiment: Induction of apoptosis in human HT-29 cells assessed as late apoptotic cells at 0.625 uM incubated for 24 hrs by FITC Annexin-V and PI staining based flow cytometry analysis (reference value: 0.78%); type: functional
[14] = system: HCT-116; experiment: cells; conditions: Homo sapiens, HCT-116, 72 h
Description: Antiproliferative activity against human HCT-116 cells incubated for 72 hrs by MTT assay

[15] = system: HT-29; experiment: Downregulation of c-Myc expression in human HT-29 cells at 10 uM incubated for 24 hrs by Western blot analysis; type: functional, cell-based
[16] = system: HT-29; experiment: Induction of apoptosis in human HT-29 cells assessed as necrotic cells at 0.625 uM incubated for 24 hrs by FITC Annexin-V and PI staining based flow cytometry analysis (reference value: 0.13%); type: functional
[17] = system: HT-29; experiment: Induction of apoptosis in human HT-29 cells assessed as late apoptotic cells at 10 uM incubated for 24 hrs by FITC Annexin-V and PI staining based flow cytometry analysis (reference value: 0.78%); type: functional
[18] = Toxicity in BALB/c mouse xenografted with human HT-29 cells assessed as kidney damage at 40 to 80 mg/kg, ip measured after 21 days by H and E staining based assay; type: organism-based; conditions: in vivo, 504 h, dose 40-80 mg/kg, time 21 day
[19] = system: HT-29; experiment: Induction of apoptosis in human HT-29 cells assessed as viable cells at 10 uM incubated for 24 hrs by FITC Annexin-V and PI staining based flow cytometry analysis (reference value: 96.94%); type: functional; conditions: read-out: Activity
[20] = Toxicity in BALB/c mouse xenografted with human HT-29 cells assessed as spleen damage at 40 mg/kg, ip measured after 21 days by H and E staining based assay; type: organism-based; conditions: in vivo, 504 h, time 21 day
[21] = system: HT-29; experiment: Induction of apoptosis in human HT-29 cells assessed as viable cells at 5 uM incubated for 24 hrs by FITC Annexin-V and PI staining based flow cytometry analysis (reference value: 96.94%); type: functional; conditions: read-out: Activity
[22] = system: HT-29; experiment: Induction of cell cycle arrest in human HT-29 cells assessed as accumulation of cells at G2 phase at 2.5 uM incubated for 24 hrs by propidium iodide staining based flow cytometry analysis (reference value: 16.33 %); type: functional
[23] = system: HT-29; experiment: Induction of apoptosis in human HT-29 cells assessed as late apoptotic cells at 1.25 uM incubated for 24 hrs by FITC Annexin-V and PI staining based flow cytometry analysis (reference value: 0.78%); type: functional
[24] = system: HT-29; experiment: Induction of cell cycle arrest in human HT-29 cells assessed as accumulation of cells at G1 phase at 2.5 uM incubated for 24 hrs by propidium iodide staining based flow cytometry analysis (reference value: 65.37 %); type: functional
[25] = system: HCT-15; experiment: Antiproliferative activity against human HCT-15 cells incubated for 72 hrs by MTT assay; type: functional, cell-based; conditions: HCT-15, 72 h
[26] = system: HCT-116; experiment: Downregulation of c-Myc expression in human HCT-116 cells incubated for 24 hrs by Western blot analysis; type: functional, cell-based; conditions: dose 2.5-10 µM
[27] = system: HT-29; experiment: Induction of apoptosis in human HT-29 cells assessed as late apoptotic cells at 5 uM incubated for 24 hrs by FITC Annexin-V and PI staining based flow cytometry analysis (reference value: 0.78%); type: functional
[28] = system: HT-29; experiment: Induction of apoptosis in human HT-29 cells assessed as viable cells at 0.625 uM incubated for 24 hrs by FITC Annexin-V and PI staining based flow cytometry analysis (reference value: 96.94%); type: functional; conditions: read-out: Activity

- inhibition [7]: Dose-Dependent Effect
- inhibition [12]: 100%
- IC50 [14]: 640 nM
- IC50 [25]: 2340 nM
SMILES: COc1cc(Oc2ccc(Nc3ccc(CCCO)cc3)cc2)cc(OC)c1CNCCc1ccc(C(F)(F)F)cc1
- inhibition [1]: Dose-Dependent Effect
- Activity [2]: Dose-Dependent Effect
- Activity [3]: 76.86%
- Activity [4]: Dose-Dependent Effect
- inhibition in vivo at 40 mg/kg [5]: 65.5%
- Activity [6]: 7.03%
- Activity [8]: 22.05%
- Activity [9]: Dose-Dependent Effect
- Activity [10]: Non-Toxic
- Activity [11]: 11.95%
- Activity [13]: 3.14%
- Activity [15]: Active
- Activity [16]: 1.44%
- Activity [17]: 13.52%
- Activity [18]: Non-Toxic
- viability at 10 µM [19]: 55.6%
- Activity [20]: Toxic
- viability at 5 µM [21]: 69%
- Activity [22]: 8.23%
- Activity [23]: 4.55%
- Activity [24]: 75.57%
- Activity [26]: Dose-Dependent Effect
- Activity [27]: 7.67%
- viability at 0.625 µM [28]: 89.5%
